Experimental data taken from patent US11407723B2, “Selective histone deacetylase inhibitors for the treatment of human disease” (Shuttle Pharmaceuticals, Inc., priority 2018, dated 2022).

How the values were obtained:
Assay type in all cases: biochemical
HDAC6 protein = target: T1, HDAC6 protein (Homo sapiens, UniProt Q9UBN7); assay: in vitro HDAC enzyme inhibition assay, HDAC6; details: for inhibitory activity against HDAC6 protein: FIGS. 1 and 2A-2C
T1 sequence (Q9UBN7 1-1215): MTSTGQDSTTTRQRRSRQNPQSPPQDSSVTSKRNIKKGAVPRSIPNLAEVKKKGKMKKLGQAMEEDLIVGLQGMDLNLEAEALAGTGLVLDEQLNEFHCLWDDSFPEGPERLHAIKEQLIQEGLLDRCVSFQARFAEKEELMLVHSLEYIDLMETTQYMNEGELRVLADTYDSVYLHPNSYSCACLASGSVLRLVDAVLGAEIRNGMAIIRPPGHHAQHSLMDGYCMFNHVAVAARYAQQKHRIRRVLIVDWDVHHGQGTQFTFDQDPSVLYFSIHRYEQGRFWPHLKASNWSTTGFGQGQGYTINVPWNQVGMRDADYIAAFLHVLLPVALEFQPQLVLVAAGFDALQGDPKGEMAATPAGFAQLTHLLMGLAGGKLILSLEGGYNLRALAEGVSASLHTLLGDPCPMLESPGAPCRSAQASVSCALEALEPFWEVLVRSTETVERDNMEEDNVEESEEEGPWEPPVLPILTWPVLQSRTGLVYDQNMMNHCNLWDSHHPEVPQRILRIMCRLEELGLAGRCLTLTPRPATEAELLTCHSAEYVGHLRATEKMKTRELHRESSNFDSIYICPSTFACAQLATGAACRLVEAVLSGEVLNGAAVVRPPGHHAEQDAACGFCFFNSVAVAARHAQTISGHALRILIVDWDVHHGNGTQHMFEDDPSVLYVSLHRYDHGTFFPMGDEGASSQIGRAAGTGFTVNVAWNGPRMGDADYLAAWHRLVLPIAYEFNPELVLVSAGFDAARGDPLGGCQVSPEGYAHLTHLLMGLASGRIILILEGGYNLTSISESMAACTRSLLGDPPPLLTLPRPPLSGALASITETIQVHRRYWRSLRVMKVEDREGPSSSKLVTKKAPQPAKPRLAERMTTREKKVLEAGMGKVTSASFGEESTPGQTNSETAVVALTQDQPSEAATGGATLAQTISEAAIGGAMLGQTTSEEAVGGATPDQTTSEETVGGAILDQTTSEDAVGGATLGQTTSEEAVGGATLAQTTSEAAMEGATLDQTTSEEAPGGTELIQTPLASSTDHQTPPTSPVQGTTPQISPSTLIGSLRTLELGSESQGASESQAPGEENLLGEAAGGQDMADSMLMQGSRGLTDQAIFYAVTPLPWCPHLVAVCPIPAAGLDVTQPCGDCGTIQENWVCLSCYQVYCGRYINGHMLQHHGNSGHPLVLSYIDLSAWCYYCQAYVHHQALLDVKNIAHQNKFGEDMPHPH
Method: (§1) The compounds were tested against Pan HDAC, HDAC1, HDAC3, and HDAC6 proteins in vitro.

HDAC1 protein = HDAC1 protein (Homo sapiens, UniProt Q13547); assay: in vitro HDAC enzyme inhibition assay, HDAC1 (selectivity of HDAC6 over HDAC1); details: HDAC6 vs HDAC1
Chain of HDAC1 protein (Q13547 whole entry): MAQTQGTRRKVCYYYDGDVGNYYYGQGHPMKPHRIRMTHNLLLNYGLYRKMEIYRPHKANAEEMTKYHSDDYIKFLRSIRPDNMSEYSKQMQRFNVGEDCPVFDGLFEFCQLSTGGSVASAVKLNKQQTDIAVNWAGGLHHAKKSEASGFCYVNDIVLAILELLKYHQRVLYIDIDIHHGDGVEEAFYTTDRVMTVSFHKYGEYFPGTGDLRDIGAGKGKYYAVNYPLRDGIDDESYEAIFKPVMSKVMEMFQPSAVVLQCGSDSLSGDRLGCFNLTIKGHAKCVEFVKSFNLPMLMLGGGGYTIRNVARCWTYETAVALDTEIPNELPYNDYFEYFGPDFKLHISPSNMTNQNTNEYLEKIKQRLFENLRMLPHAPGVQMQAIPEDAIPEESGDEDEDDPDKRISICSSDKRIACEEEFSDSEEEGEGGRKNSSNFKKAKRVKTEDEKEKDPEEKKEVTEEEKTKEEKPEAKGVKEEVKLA
Method: as §1

HDAC3 protein = HDAC3 protein (Homo sapiens, UniProt O15379); assay: in vitro HDAC enzyme inhibition assay, HDAC3 (selectivity of HDAC6 over HDAC3); details: HDAC6 vs HDAC3
Chain of HDAC3 protein (O15379 whole entry): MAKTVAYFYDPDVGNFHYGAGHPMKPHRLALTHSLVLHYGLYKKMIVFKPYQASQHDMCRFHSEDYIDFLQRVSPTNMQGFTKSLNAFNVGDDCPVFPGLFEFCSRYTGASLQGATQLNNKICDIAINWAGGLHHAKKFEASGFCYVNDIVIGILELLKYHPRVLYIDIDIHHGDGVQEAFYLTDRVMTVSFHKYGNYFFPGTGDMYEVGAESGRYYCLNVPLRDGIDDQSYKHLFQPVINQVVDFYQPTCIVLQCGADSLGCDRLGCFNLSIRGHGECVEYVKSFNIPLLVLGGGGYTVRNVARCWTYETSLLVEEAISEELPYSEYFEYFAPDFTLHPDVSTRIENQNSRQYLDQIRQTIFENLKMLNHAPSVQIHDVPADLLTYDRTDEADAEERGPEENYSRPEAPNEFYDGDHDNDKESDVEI
Chain of HDAC3 protein (Q9Y618 395-489 partner limits assumed): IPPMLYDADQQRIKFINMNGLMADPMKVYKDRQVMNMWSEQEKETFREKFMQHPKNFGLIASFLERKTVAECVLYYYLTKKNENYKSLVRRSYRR
Method: as §1

Compound	inhibitory activity against HDAC6 protein (HDAC6 protein)	selectivity for HDAC6 as compared to Pan-HDACs, HDAC1 and HDAC3 (in words) (HDAC6 protein)	times more selective for HDAC6 as compared to HDAC1 (HDAC1 protein)	times more selective for HDAC6 as compared to HDAC3 (HDAC3 protein)
Cc1nnc(NS(=O)(=O)c2ccc(NC(=O)CCCCCCC(=O)NO)cc2)s1 [SP-2-213, N^1-hydroxy-N^8-(4-(N-(5-methyl-1,3,4-thiadiazol-2-yl)sulfamoyl)phenyl) octanediamide]	inhibitors of HDAC6	selective inhibitors of HDAC6	about 4 times	about 12 times
Cc1cc(CNCCCCCC(=O)NO)ccc1OCc1cccc(-c2ccccc2)c1C [SP-2-225, N-hydroxy-6-((3-methyl-4-((2-methyl-[1,1′-biphenyl]-3-yl)methoxy)benzyl)amino)hexanamide]	inhibitors of HDAC6	selective inhibitors of HDAC6	about 65 times	about 22 times
